Test systems include NCI-H460; MDA-MB-435; HOP-92; M14; NCI-H226; MCF7; MDA-N; SNB-19; UACC-62; SNB-75; A549; SK-MEL-5; SR; KM12; MOLT-4; OVCAR-3; NCI/ADR-RES; SK-MEL-2; RXF 393; EKVX.
Common to all, as to test: NCI anticancer screen, dose series, 48 h

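Method: 48-hour compound exposure of cells in 96-well plates, five concentrations, linear interpolation of endpoints. The concentration for 50% growth inhibition is given as GI50.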 Activity calls are given as the source filed them. Rule as the data show it: active = GI50 up to about 1.1 µM and inactive = higher.

In the case of `CCOC1Oc2ccccc2-c2nc(N)ncc21` (stereo not drawn), the GI50 with NCI-H460 was 24.9 µM (inactive); with MDA-MB-435, 21.7 µM (inactive); in the assay on HOP-92 it was 69 µM (inactive); in the assay on M14 it was 56.8 µM (inactive); in the assay on NCI-H226, 61.9 µM (inactive); with MCF7 it was 37.4 µM (inactive). Also, the GI50 with MDA-N is 31.6 µM (inactive); in the assay on SNB-19, > 100 µM (inactive); with UACC-62 it was 29.1 µM (inactive); in the assay on SNB-75, 34 µM (inactive); in the assay on A549, 45.8 µM (inactive); in the assay with SK-MEL-5, 42.8 µM (inactive). For the same compound, the GI50 is 24.9 µM (inactive) in the assay with SR; 39.4 µM (inactive) in the assay with KM12; 52.5 µM (inactive) in the assay on MOLT-4; 57 µM (inactive) in the assay on OVCAR-3; 39.7 µM (inactive) in the assay on NCI/ADR-RES; > 100 µM (inactive) in the assay with SK-MEL-2. Also, the GI50 with RXF 393 was 37.7 µM (inactive); with EKVX, 45.1 µM (inactive).

On to `COc1cc(/C=C2\CCC(C)C3=C(c4cc(OC)c(OC)c(OC)c4)C(C#N)=C(N)OC32)cc(OC)c1OC` (stereo not drawn), for which the GI50 is 3.57 µM (inactive) in the assay on NCI-H460; 2.76 µM (inactive) in the assay on MDA-MB-435; 3.17 µM (inactive) in the assay with HOP-92; 2.23 µM (inactive) in the assay on M14; 2.98 µM (inactive) in the assay with NCI-H226; 2.24 µM (inactive) in the assay with MCF7. The GI50 was 2.47 µM (inactive) with MDA-N; 11.6 µM (inactive) in the assay with SNB-19; 2.45 µM (inactive) in the assay on UACC-62; 1.36 µM (inactive) in the assay on SNB-75; 3.46 µM (inactive) with A549; 2.61 µM (inactive) in the assay on SK-MEL-5. In addition, the GI50 with SR is 1.49 µM (inactive); with KM12, 3.86 µM (inactive); with MOLT-4 it was 1.84 µM (inactive); in the assay with OVCAR-3, 4.1 µM (inactive); with NCI/ADR-RES it was 3.74 µM (inactive); in the assay with SK-MEL-2 it was 2.09 µM (inactive). Besides, the results for the GI50 in the assay on RXF 393 and in the assay on EKVX were 1.65 µM (inactive) and 3.08 µM (inactive), respectively.

As to `O=C(O)c1ccc(C(=O)Nc2cccc3ccccc23)c(C(=O)O)c1`, the GI50 with NCI-H460, in the assay with MDA-MB-435, in the assay with HOP-92, in the assay with M14, in the assay with NCI-H226 and in the assay on MCF7 was > 100 µM (inactive) in each case. Also, the GI50 in the assay with MDA-N, in the assay with SNB-19, with UACC-62, in the assay on SNB-75, with A549 and with SK-MEL-5 was > 100 µM (inactive) throughout. In addition, the GI50 in the assay on SR, with KM12, in the assay on MOLT-4, with OVCAR-3, with NCI/ADR-RES and in the assay with SK-MEL-2 was > 100 µM (inactive) in each case. In addition, the GI50 in the assay on RXF 393 and in the assay on EKVX was > 100 µM (inactive) in each case.

In the case of `c1ccc(C(=NNc2cnc3ccccc3n2)c2ccccn2)cc1`, the GI50 with NCI-H460 was 1.26 µM (inactive); in the assay on MDA-MB-435, 3.96 µM (inactive); with HOP-92 it was 5.6 µM (inactive); in the assay on M14 it was 0.425 µM (active); in the assay on NCI-H226, 4.9 µM (inactive); in the assay with MCF7, 0.371 µM (active). For the same compound, the GI50 with MDA-N is 9.64 µM (inactive); with SNB-19, 6.43 µM (inactive); in the assay on UACC-62, 3 µM (inactive); in the assay on SNB-75 it was 5.85 µM (inactive); with A549, 3.15 µM (inactive); with SK-MEL-5, 1.42 µM (inactive). Further, the GI50 with SR was 1.01 µM (active); with KM12, 4.08 µM (inactive); with MOLT-4, 0.139 µM (active); in the assay with OVCAR-3, 0.608 µM (active); in the assay with NCI/ADR-RES, 0.494 µM (active); in the assay on SK-MEL-2, 9.77 µM (inactive). The figures for the GI50 in the assay on RXF 393 and in the assay with EKVX were 7.59 µM (inactive) and 0.269 µM (active), respectively.

Consider `CN(C)NC(=S)Nc1ccccc1Br`, for which the GI50 with NCI-H460, in the assay with MDA-MB-435, in the assay with HOP-92, in the assay on M14, in the assay with NCI-H226 and with MCF7 was > 100 µM (inactive) in each case. Besides, the GI50 with MDA-N is > 100 µM (inactive); in the assay with SNB-19, > 100 µM (inactive); in the assay with UACC-62 it was > 100 µM (inactive); with SNB-75, 46.5 µM (inactive); in the assay on A549, > 100 µM (inactive); in the assay on SK-MEL-5, > 100 µM (inactive). Besides, the GI50 in the assay on SR, in the assay with KM12, in the assay with MOLT-4, with OVCAR-3, with NCI/ADR-RES and in the assay on SK-MEL-2 was > 100 µM (inactive) each time. In addition, the GI50 with RXF 393 and with EKVX was > 100 µM (inactive) throughout.

As to `FC(F)(Sc1ncc[nH]1)c1nc2ccccc2o1`, the GI50 in the assay with NCI-H460, with MDA-MB-435, in the assay with HOP-92, in the assay with M14, in the assay on NCI-H226 and with MCF7 was > 100 µM (inactive) throughout. For the same compound, the GI50 with MDA-N, in the assay on UACC-62, with SNB-75, in the assay on A549, with SK-MEL-5 and in the assay on SR was > 100 µM (inactive) each time. Besides, the GI50 with KM12, in the assay on MOLT-4, with OVCAR-3, with NCI/ADR-RES, in the assay on SK-MEL-2 and in the assay with RXF 393 was > 100 µM (inactive) throughout.

With `COc1c(CC=C(C)C)c(O)c(C(CC(C)C)c2c(O)c(CC=C(C)C)c(O)c(C(C)=O)c2O)c(O)c1C(C)=O` (stereo not drawn), the GI50 with NCI-H460 was 0.589 µM (active); in the assay with MDA-MB-435, 1.94 µM (inactive); with HOP-92, 0.191 µM (active); with M14, 1.43 µM (inactive); with NCI-H226 it was 1.24 µM (inactive); with MCF7, 0.385 µM (active). The GI50 with MDA-N is 2.16 µM (inactive); with SNB-19, 1.15 µM (inactive); with UACC-62, 0.527 µM (active); in the assay with SNB-75, 1.69 µM (inactive); in the assay with A549, 1.8 µM (inactive); with SK-MEL-5, 0.482 µM (active). Moreover, the GI50 in the assay on SR is 1.1 µM (active); with KM12 it was 0.998 µM (active); in the assay with MOLT-4, 0.644 µM (active); in the assay on OVCAR-3 it was 1.15 µM (inactive); in the assay on NCI/ADR-RES, 0.729 µM (active); in the assay on SK-MEL-2 it was 0.504 µM (active). Further, the GI50 in the assay on RXF 393 was 0.427 µM (active); in the assay with EKVX, 1.04 µM (active).

On to `COc1cc(C2c3cc4c(cc3OC(NCCO)C2C)OCO4)cc(OC)c1OC` (stereo not drawn), for which the GI50 in the assay on NCI-H460 was 0.409 µM (active); with MDA-MB-435, 0.0927 µM (active); with HOP-92, 0.188 µM (active); with M14, 0.27 µM (active); with NCI-H226, 0.644 µM (active); in the assay on MCF7, 0.344 µM (active). Also, the GI50 was 0.401 µM (active) in the assay on MDA-N; 1.32 µM (inactive) with SNB-19; 0.378 µM (active) in the assay on UACC-62; 1.12 µM (inactive) in the assay with SNB-75; 0.762 µM (active) in the assay on A549; 0.323 µM (active) with SK-MEL-5. The GI50 in the assay with SR is 0.248 µM (active); with KM12, 0.382 µM (active); in the assay on MOLT-4, 0.489 µM (active); in the assay on OVCAR-3, 0.244 µM (active); with NCI/ADR-RES it was 0.807 µM (active); in the assay with SK-MEL-2, 3.42 µM (inactive). For the same compound, the GI50 was 0.426 µM (active) in the assay with RXF 393 and 13.1 µM (inactive) in the assay on EKVX.

On to `COc1ccc2c(c1)C(OC)C1c3c(cc4c(c3-2)OCO4)CCN1C` (stereo not drawn), for which the GI50 in the assay on NCI-H460 was 2.82 µM (inactive); in the assay with MDA-MB-435, 3.34 µM (inactive); in the assay on HOP-92, 0.925 µM (active); with M14 it was 2.64 µM (inactive); in the assay on NCI-H226 it was 2.39 µM (inactive); in the assay on MCF7, 2.67 µM (inactive). In addition, the GI50 in the assay with MDA-N is 2.86 µM (inactive); with SNB-19, 3.12 µM (inactive); in the assay with UACC-62 it was 2.11 µM (inactive); in the assay with SNB-75, 4.05 µM (inactive); with A549 it was 2.92 µM (inactive); in the assay on SK-MEL-5, 2.43 µM (inactive). The GI50 in the assay with SR was 2.4 µM (inactive); in the assay on KM12, 4.34 µM (inactive); in the assay with MOLT-4, 1.95 µM (inactive); in the assay with OVCAR-3, 5.81 µM (inactive); with NCI/ADR-RES it was 1.87 µM (inactive); with SK-MEL-2 it was 2.73 µM (inactive). In addition, the GI50 with RXF 393 was 2.06 µM (inactive); with EKVX, 4.34 µM (inactive).

With `Clc1nc(Cl)c(CBr)c(Cl)n1`, the GI50 in the assay with NCI-H460 was 4.3 µM (inactive); with MDA-MB-435, 5.05 µM (inactive); in the assay on HOP-92 it was 2.28 µM (inactive); in the assay with M14, 2.91 µM (inactive); in the assay with NCI-H226 it was 8.45 µM (inactive); in the assay on MCF7, 5.37 µM (inactive). Also, the GI50 is 3.25 µM (inactive) in the assay with MDA-N; 16 µM (inactive) with SNB-19; 5.08 µM (inactive) with UACC-62; 8.83 µM (inactive) with SNB-75; 16 µM (inactive) in the assay on A549; 4.01 µM (inactive) in the assay with SK-MEL-5. The GI50 in the assay with SR is 1.74 µM (inactive); in the assay on KM12 it was 2.71 µM (inactive); in the assay on MOLT-4, 1.45 µM (inactive); in the assay on OVCAR-3, 5.45 µM (inactive); with NCI/ADR-RES it was 4.29 µM (inactive); in the assay on SK-MEL-2, 8.65 µM (inactive). The GI50 in the assay with RXF 393 was 6.85 µM (inactive); in the assay on EKVX, 22.1 µM (inactive).

Source of the values: ChEMBL document CHEMBL1201862, “PubChem BioAssay data set” (2004).
